Tests used:
Assay type in all cases: cell-based, rat
NSCs = assay: 5-HT in culture medium of NSCs by microdialysis with HPLC-ECD; conditions: p<0.05
Procedure: A microdialysis sampling system connected to the Petri dish was constructed in our laboratory according to the design originally described by Cheng et al., J. Chromatogr. A. 870, 405-411, 2000. The dialysis probe was made of a dialysis membrane 30 mm in length, with an outer diameter of 150 μm, and a nominal molecular weight cut-off of 13000. Ringer solution ([…]) was perfused through the probe at a flow-rate of 2 μl/min. Microdialysate samples were collected every 10 minutes. An HPLC-ED system (HTEC-500; Eicom, Kyoto, Japan) consisting of a three-electrode cell with an Ag/AgCl electrode as the reference electrode, a counter electrode and a graphite electrode as the working electrode was used to measure determine the levels of serotonin (5-HT). […] The column used for separation at room temperature (25° C.) was a PP-ODS (4.6×30 mm) (Eicom, Kyoto, Japan). The mobile phase, containing 0.1 M sodium phosphate buffer (0.1 M NaH2PO4: 0.1 M Na2HPO4=1000:160, v/v), 1% methanol, 500 mg/l sodium secanesulfonate and 50 mg/l EDTA, was adjusted to pH 6.0 with 5 M of NaOH with a flow rate of 0.5 ml/min. A volume of 10 μl of each microdialysate was injected manually into the chromatographic system and assayed on the same sampling day.

LPS-treated NSCs = assay: ELISA of IL-1β, IL-6 and TNF-α in LPS-treated NSCs
Procedure: IM was purchased from Sigma Chem. Co., St Louis, Mo., USA. NSCs were seeded on 24-well plates at a density of 2×10^4 cells/well in medium, followed by methyl thiazol tetrazolium assay (MTT assay) (Sigma-Aldrich Co., St Louis, Mo., USA) for cell viability. NSCs were incubated with 0.25 mg/ml MTT for 4 hours at 37° C. and the reaction was terminated by the addition of 100% isopropanol. The amount of MTT fromazon product was determined using a microplate reader and the absorbance was measured at 560 nm (SpectraMax 250, Molecular Devices, Sunnyvale, Calif., USA). NSCs were exposed to 0, 1, 2, 5, 10, 20, 30, 40, 50, 100, 200, and 300 μM of IM for 1, 3, 5, and 7 days, respectively. The activities of caspases 8 and 3 (Medical and Biological Laboratories Co., Ltd., Nagoya, Japan), and the concentration of IL-6, IL-1 and TNF-α (Pharmingen, San Diego, Calif., USA) were determined by ELISA kits and quantified by reading at 490 nm (MRX; Dynatech Laboratories, Chantilly, Va., USA). Each individual sample was analyzed in triplicate.
(§1) Double-stranded, short interfering RNA (siRNA) of BDNF and Bcl-2 were chemically synthesized by Ambion Inc., Austin, Tex., USA). The sense and antisense sequences of BDNF were designed as follows: Sense: […]tt; Antisense: AGCTTAAAAAGAG CTGtt, starting from nucleotide 137 of the Bcl-2 sequence (accession number L14680). The sense and antisense sequences of Bcl-2 were designed as follows: Sense: GCGCUGGAUAUAACUUCUUtt; Antisense: AAGAAGUUAUAUC CAGCGCtt, starting from nucleotide 137 of the Bcl-2 sequence (accession number L14680). In this test, the siRNA control used was siRNA-Cy3 (QIAGEN; sense sequence: UUCUCCGAACGUGU CACGUdTdT-3′-Cy3 and the complement 5′-ACGUGACACGUUCGGAGAAdTdT-3′-Cy3) as an irrelevant control. The transfection of siRNA was performed using Lipofectamine 2000 (Invitrogen, Carlsbad, Calif., USA) according to the manufacturer's instructions. In brief, cells were harvested with 0.25% trypsin, 1 mM ethylenediaminetetraacetic acid (EDTA) in phosphate buffered saline (PBS) without Ca^2+ and Mg^2+, and plated in six-well plates at 10^5 per cm^2. Then 3.5 μl siRNA (100 μM solution) was mixed with 125 μl serum-free culture medium for 5 minutes at room temperature. During this incubation period, 5 μl of Lipofectamine 2000 was diluted in 125 μl serum-free culture medium. These two mixtures were combined, mixed gently, and incubated for 20 minutes at room temperature for complex formation. This 250 μl of siRNA-Lipofectamine mixture was then added into the cells in a final volume of 2.5 ml per well. The transfected cells were cultured and fed daily with fresh medium until they were assayed.

Bcl-2 = Bcl-2 protein expression in NSCs by western blot and immunocytochemistry
Procedure: After the treatment with IM, the cell lysates of the NSCs were collected and the concentration of protein was determined by using the Protein Assay kit (Bio-Rad, Hercules, Calif., USA). Cell extracts with sample buffer were boiled for 5 minutes and then separated by 10% SDS-PAGE gel. After electrophoresis, the gel was transferred onto a PVDF membrane for immunoblotting. The membrane was first blocked by incubation in non-fat milk at room temperature for 2 hours, then incubated with anti-Bcl-2 antibody (Upstate Biotechnology Inc, Waltham, Mass., USA), and anti-β actin (Chemicon International Inc, Temecula, Calif., USA) for 2 hours at room temperature, washed five times with Tris-Buffered Saline Tween-20 (TBST), and then incubated further at room temperature with horseradish peroxidase-conjugated secondary antibody for 2 hours. Then the membrane was washed six times with TBST and specific bands were made visible by chemiluminescence (Santa Cruz Biotechnology, Santa Cruz, Calif., USA).
as §1
An avidin-biotin complex method was used for the immunohistochemical staining in the differentiated NSCs. Following washes with the 3% hydrogen peroxide, sodium azide and antigens were retrieved using a microwave. Each slide was then treated with antibodies for Bcl-2 (Upstate Biotechnology, Waltham, Mass., USA), Nestin (Chemicon, Temecula, Calif., USA), 4′, 6-diamidino-2-phenylindole (DAPI; Chemicon, Temecula, Calif., USA) and MAP2 (Chemicon, Temecula, Calif., USA). Immunoreactive signals were detected with a mixture of biotinylated rabbit anti-mouse IgG and Fluoresave (Calbiochem, La Jolla, Calif., USA) under confocal microscopy (Olympus, FV300). Each individual sample was analyzed in triplicate. Furthermore, apoptotic cells were identified by the TUNEL method (In Situ Cell Death Detection Kit, POD, Roche Boehringer Mannheim Corp., IN, USA) as described in Chiou et al., J. Immunol. 167, 4098-4103, 2001. Briefly, the cells with cover slips were washed with 1× phosphate buffered saline (PBS), fixed with 4% of paraformaldehyde for 10 minutes, permeabilized with 0.1% of triton X-100 for 5 mins, and incubated with the TUNEL reagent provided for 1 hour. Chromogenic development was then applied with 3-amino-9-ethyl-carbazole, and slides were counterstained with H & E stain. […]

[1] = vs only LPS-treated NSCs, IM 3 μM, p<0.05
[2] = agent added to LPS-treated NSCs with IM, U0126 40 μM

SMILES | 5-HT level in culture medium (NSCs; Day 7 and Day 14, IM-treated vs without IM-treatment NSCs) | IL-1β production in LPS-treated NSCs (LPS-treated NSCs; [1]) | IL-6 production in LPS-treated NSCs (LPS-treated NSCs; [1]) | TNF-α production in LPS-treated NSCs (LPS-treated NSCs; [1]) | protein expression level of Bcl-2 in LPS-treated NSCs (Bcl-2; 3 μM IM vs 1, 2 μM IM-LPS-treated, only LPS-treated and control groups) | protein level of Bcl-2 (western blot) (Bcl-2; Day 3 IM-treated vs Day 3 non-IM-treated NSCs, p<0.05) | protein expression of Bcl-2 (immunohistochemistry) (Bcl-2; Day 7 IM-treated NSCs vs NSCs without IM treatment) | expression level of Bcl-2 protein (western blot) (Bcl-2; Day 7 IM-treated vs Day 3 or Day 5 IM-treated NSCs, p<0.05) | Bcl-2 expression in NSCs (Bcl-2; treatment with either agent alone) | production of 5-HT of IM-treated NSCs (NSCs; agent added, Day 7 and Day 14) | level of IL-1β in LPS-treated NSCs with IM (LPS-treated NSCs; [2]) | level of IL-6 in LPS-treated NSCs with IM (LPS-treated NSCs; [2]) | level of TNF-α in LPS-treated NSCs with IM (LPS-treated NSCs; [2]) | Bcl-2 expression induced by IM in NSCs (Bcl-2; agent added to IM-treated NSCs)
CN(C)CCCN1c2ccccc2CCc2ccccc21 [IM, imipramine] | significantly higher | effectively reduces | effectively reduces | effectively reduces | significantly increased | higher | significantly increased | significantly increased | activate | – | – | – | – | –
N#CC(=C(/N)Sc1ccccc1N)/C(C#N)=C(\N)Sc1ccccc1N [U0126] | – | – | – | – | – | – | – | – | – | significantly diminished | significantly increased | significantly increased | significantly increased | effectively blocked
